In publication PMC3823594, “Conformational Changes Underlying Pore Dilation in the Cytoplasmic Domain of Mammalian Inward Rectifier K^+ Channels” (PLoS ONE, 2013) one finds Hill coefficient data, which are given here for 1 molecule.

Substitutions are numbered along the chain they refer to.

Holding throughout (test): Two-electrode voltage clamp, ACh-dependent (m2R-dependent) K+ current activation
Common to all, as to assay type: cell-based

The target of one experiment is T1, Kir3.2 M313R (Mus musculus, UniProt P48542, I313R).
T1 sequence (P48542 19-425 I313R): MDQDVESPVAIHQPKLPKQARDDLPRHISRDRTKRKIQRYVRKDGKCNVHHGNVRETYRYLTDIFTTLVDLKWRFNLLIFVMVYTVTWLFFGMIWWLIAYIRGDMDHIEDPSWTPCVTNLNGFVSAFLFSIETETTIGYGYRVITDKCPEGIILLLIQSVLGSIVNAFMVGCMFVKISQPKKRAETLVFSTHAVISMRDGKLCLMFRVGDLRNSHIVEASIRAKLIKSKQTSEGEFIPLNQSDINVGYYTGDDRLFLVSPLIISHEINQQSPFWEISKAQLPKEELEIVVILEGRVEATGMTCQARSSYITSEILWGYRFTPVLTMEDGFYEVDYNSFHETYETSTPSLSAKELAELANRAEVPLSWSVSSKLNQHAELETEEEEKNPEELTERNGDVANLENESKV
T1 sequence (P06199 1-466 partner): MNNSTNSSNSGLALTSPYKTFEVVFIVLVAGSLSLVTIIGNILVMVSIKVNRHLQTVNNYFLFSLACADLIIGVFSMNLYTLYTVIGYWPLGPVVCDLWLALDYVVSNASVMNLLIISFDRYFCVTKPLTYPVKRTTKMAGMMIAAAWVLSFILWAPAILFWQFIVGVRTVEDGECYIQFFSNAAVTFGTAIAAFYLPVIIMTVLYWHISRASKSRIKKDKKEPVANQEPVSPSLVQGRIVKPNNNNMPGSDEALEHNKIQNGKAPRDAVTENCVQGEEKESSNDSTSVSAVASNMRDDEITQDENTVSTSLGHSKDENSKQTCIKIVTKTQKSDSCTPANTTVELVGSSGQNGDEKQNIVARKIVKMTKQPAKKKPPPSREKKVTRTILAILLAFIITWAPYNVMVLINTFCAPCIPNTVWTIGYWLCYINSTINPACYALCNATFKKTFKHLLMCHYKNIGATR
The note with it: Kir3.2 M313R with porcine m2R in Xenopus oocytes; −120 mV; Hill equation fit, min not zero. An excerpt:
(§1) The mouse Kir3.2d isoform was subjected to functional analyses. The amino acid numbers correspond to the longest mouse Kir3.2 isoform. Point mutations were introduced using the QuikChange site-directed mutagenesis kit (Stratagene, La Jolla, CA), and the presence of the mutations was confirmed by direct DNA sequencing. The care of Xenopus laevis was in accordance with the guideline of the Institute of Experimental Animal Sciences, Osaka University. The protocol was approved by the Animal Experiment Committee of Osaka University. The frogs were deeply anesthetized by immersing in 0.2% tricaine methanesulfonate for 20 min at 18°C. A portion of an ovary lobe was surgically removed and incubated with collagenase to remove follicular cells. The oocytes were injected with the cRNAs of Kir3.2 and porcine m2-muscarinic receptor (m2R), and maintained in modified Barth’s solution at 18°C with daily solution changes. Electrophysiological studies were undertaken 48–72 h later at room temperature (20–25°C). Two-electrode voltage-clamp recordings from oocytes were performed using a GeneClamp 500B amplifier (Axon Instruments, Sunnyvale, CA). […] The bath solution contained 40 mM KCl, 50 mM NaCl, 3 mM MgCl2, 0.15 mM niflumic acid, and 5 mM HEPES-KOH (pH 7.4). The currents were recorded in the absence or presence of various concentrations of acetylcholine (ACh). Ba^2+ (3 mM) was added at the end of the recording to estimate the endogenous leak current. The data are expressed as mean values ± standard error of the mean. For the quantitative estimation of ACh-dependent current responses of the wild-type (WT) and mutant channels, the current amplitudes at the end of test pulses at each ACh concentration ([ACh]) were fitted using the following equation:
(§2) I=min+[(max−min)/(1+(EC50/[ACh])^nH)]
(§3) where I is the current amplitude measured at the [ACh], n H is the Hill coefficient, and EC50 is the concentration that induces 50% of the maximal response. […] The values of n H and EC50 were calculated using a non-linear least-squares best fit (SigmaPlot 9; Systat Software). Statistical analyses were performed by one-way ANOVA with post-hoc tests.

For another experiment, the target named is T2, Kir3.2 E236A (Mus musculus, UniProt P48542, E236A).
T2 sequence (P48542 19-425 E236A): T1 sequence (P48542 19-425 I313R) with E218A, R295I
T2 sequence (P06199 1-466 partner): T1 sequence (P06199 1-466 partner)
The note with it: Kir3.2 E236A with porcine m2R in Xenopus oocytes; −120 mV; Hill equation fit.
From the text: as §1, §2, §3

The target in another experiment is T3, Kir3.2 M313A (Mus musculus, UniProt P48542, I313A).
T3 sequence (P48542 19-425 I313A): T1 sequence (P48542 19-425 I313R) with R295A
T3 sequence (P06199 1-466 partner): T1 sequence (P06199 1-466 partner)
The note with it: Kir3.2 M313A with porcine m2R in Xenopus oocytes; −120 mV; Hill equation fit.
From the text: as §1, §2, §3

`CC(=O)OCC[N+](C)(C)C` [ACh, acetylcholine]: the values for the Hill coefficient on Kir3.2 M313R, at Kir3.2 E236A and at Kir3.2 M313A were 0.52 ± 0.08, 1.12 ± 0.04 and 1.05 ± 0.08, respectively.

A word on the Hill coefficient: it is a measure of the steepness of the concentration-response curve.
